Laboratory results as given in patent US12115180B2 (Board of Supervisors of Louisiana State University and …, priority 2020, dated 2024).

Tests used:
[1] = pKa and protonation of the side-chain amines; assay type: physicochemical
p53 = test: Western blot of p53 expression in NRCs; assay type: cell-based, Sprague Dawley rat; details: 10 μM, 24 h
Description: (§1) Cell Lines and Maintenance. Primary Neonatal Rat Cardiomyocyte Culture. The inventors isolated neonatal rat cardiomyocytes (NRCs) from the ventricles of 1-2 day old Sprague Dawley rat pups as described previously. Briefly, ventricular tissues excised from rat pups were digested with collagenase at 4° C. overnight with subsequent digestion in trypsin. Next, cells were preplated to remove cardiac fibroblasts, followed by plating of isolated cardiomyocytes at 1.5×10^6 cells per 10 cm^2 plate in αMEM containing 10% fetal bovine serum (FBS) (Gibco) and 1% antibiotic-antimycotic (Gibco) media. After 24 h, NRCs were maintained in Dulbecco's modified Eagle's medium (DMEM) (Gibco) containing 2% FBS and 1% antibiotic-antimycotic and subjected to different treatments, as described previously. All cell culture treatments were repeated in three independent experiments.
Protein Extraction and Western Blot Analyses. NRCs were washed with PBS and lysed with CelLytic M (Sigma-Aldrich) lysis buffer containing a complete protease inhibitor cocktail (Roche®). […] The protein concentration of the soluble cardiomyocyte lysates was measured using the modified Bradford reagent relative to a BSA standard curve (Bio-Rad®) in a 1 mL cuvette on a DS-11 FX+ spectrophotometer (DeNovix®, Wilmington, DE). […]

[2] = tested on: neonatal rat cardiomyocytes (NRCs); test: Lactate dehydrogenase release assay for cardiac myocytes; assay type: cell-based, Sprague Dawley rat; details: 5 μM, 10 μM, and 25 μM; 24 h
Description: as §1
Biochemical Assays. Lactate Dehydrogenase Release Assay for Cardiac Myocytes. Following treatments, culture media were collected and cleared by centrifugation at 5000 g for 10 min. Lactate dehydrogenase (LDH) release into culture media was measured using a cytotoxicity detection kit (Roche®) as per the manufacturer's instructions. Color development was measured using a microplate absorbance reader at an absorbance of 492 nm (Bio-Rad®).

| SMILES | pKa [1] | fraction protonated ([1]; pH 4.5) [%] | fraction protonated ([1]; pH 5.5) [%] | p53 protein expression (p53) | LDH release (cell death) [2] |
| --- | --- | --- | --- | --- | --- |
| NCCN1CCCC1 [PY, 2-pyrrolidine-1-yl-ethyl-amine] | 5.4 | 89 | 44 | – | – |
| COc1cccc2c1C(=O)c1c(O)c3c(c(O)c1C2=O)C[C@@](O)(C(=O)CO)C[C@@H]3O[C@H]1C[C@H](N)[C@H](O)[C@H](C)O1 [con-DOX, doxorubicin] | – | – | – | increased p53 expression | dose-dependent increase in cell death |
| CCCCN(CCN)CCCC | 4 | 24 | 3 | – | – |
